# From paper PMC5849211 (Chemical Science, 2017)
# Test system: Saos-2 cells
# Assay: MTT assay, Saos-2 cells
# Format: cell-based, human
# Settings: 0.5 mM levamisole, 3 h + 24 h, n = 3
structure (smiles),measurement,value
c1ccc([C@H]2CN3CCSC3=N2)cc1 [levamisole],"cell viability, Saos-2, levamisole alone",no obvious effect on the cell viability alone
